Assay results reported in patent publication US5342980A, “Fungicidal agents” (American Cyanamid Company, priority 1992, dated 1994).

How the values were obtained:
Alternaria solani = assay: In vivo fungicidal evaluation, Tomato Early Blight (TEB); details: 200 ppm, plants sprayed before inoculation
Venturia inaequalis = assay: In vivo fungicidal evaluation, Apple Scab (AS); details: 200 ppm, plants sprayed before inoculation
Cercospora arachidicola = assay: In vivo fungicidal evaluation, Peanut Cercospora Early Leaf Spot (PCE); details: 400 ppm, plants sprayed before inoculation
Rhizoctonia solani [1] = assay: In vivo fungicidal evaluation, Rice Sheath Blight (RSB); details: 400 ppm, plants sprayed before inoculation
Botrytis cinerea = assay: In vivo fungicidal evaluation, Pepper Botrytis (PB); details: 200 ppm, plants sprayed before inoculation
Cercospora beticola = assay: In vivo fungicidal evaluation, Sugar Beet Cercospora (SBC); details: plants sprayed before inoculation
Pyricularia oryzae = type: in vivo; details: 200 ppm, plants sprayed before inoculation
[2] = system: Fusarium oxysporum f. sp. cucumerinum; assay: In vitro fungicidal evaluation, growth inhibition (FUSOXC); type: cell-based; set-up: scale not given here; details: 25 ppm, 3-4 days at 21° C.
Method: (§1) Test compounds are dissolved in acetone and dispersed into cell well plates containing a suspension of ground fungal mycelia in a nutrient broth. Assay plates are incubated for 3-4 days at 21° C. Growth inhibition is measured visually and is rated using the following scale:
(§2) Untreated controls, solvent blanks and reference standards are included in each test.
(§3) Assay fungi include the plant pathogens, Pythium ultimum (Pythul); Rhizoctonia solani (Rhizso); Fusarium oxysporum f. sp. cucumerinum (Fusoxc); and Pseudocercosporella herpotrichoides (Psdche).
(§4) When more than one test is run, the data are averaged.

Pythium aphanidermantum = assay: Control of soil borne diseases, Cucumber damping-off by Pythium (CUPA); type: in vivo; details: 14-18 days after treatment; further: ranges in brackets are in %
Method: (§5) Pasturized soil (100 mL) is added to 6 cm diameter plastic cups without drainage holes and covered with pathogen contaminated soil (30 mL). Ten germinated cucumber seeds are planted on the contaminated soil and the seeds are covered with pasteurized soil (20 mL). Test compounds are dissolved in acetone, diluted with deionized water containing about 0.05% TWEEN 20®, and applied to the pots by drenching the soil surface with 15 mL of test solution. The pots are placed in a greenhouse for disease development. The pots are watered lightly until plants emerge from the soil surface. Disease evaluations are made 14-18 days after treatment according to the rating scale shown below.

Rhizoctonia solani [3] = assay: In vitro fungicidal evaluation, growth inhibition (RHIZSO); type: cell-based; set-up: scale not given here; details: 25 ppm, 3-4 days at 21° C.
Method: as §1, §2, §3, §4

[4] = system: Fusarium oxysporium f. sp. cucumerinum; assay: Control of soil borne diseases, Cucumber Fusarium Wilt (CUFO); type: in vivo; details: 14-18 days after treatment; further: ranges in brackets are in %
Method: as §5

[5] = system: Pseudocercosporella herpotrichoides; assay: In vivo fungicidal evaluation, Wheat Eyespot (WES); details: 400 ppm, plants sprayed before inoculation
[6] = system: Puccinia recondita f. sp. tritici; assay: In vivo fungicidal evaluation, Wheat Leaf Rust (WLR); details: 200 ppm, plants sprayed before inoculation
Pythium ultimum = assay: In vitro fungicidal evaluation, growth inhibition (PYTHUL); type: cell-based; set-up: scale not given here; details: 25 ppm, 3-4 days at 21° C.
Method: as §1, §2, §3, §4

[7] = system: Pseudocercosporella herpotrichoides; assay: In vitro fungicidal evaluation, growth inhibition (PSDCHE); type: cell-based; set-up: scale not given here; details: 25 ppm, 3-4 days at 21° C.
Method: as §1, §2, §3, §4

Mycosphaerella fijiensis = assay: Control of banana black sigatoka on banana seedlings; type: in vivo; details: 200 ppm, leaves sprayed to run-off; 28 to 40 days post inoculation
Method: Test compounds are dissolved in acetone and diluted with distilled water containing about 0.05% TWEEN 20® to give a concentration of 200 ppm. Banana seedlings at the 6-7 leaf stage are sprayed with test solution on the upper and lower surfaces of the 3 youngest, unfurled leaves to the point of run-off, dried and inoculated with a spore suspension of Mycosphaerella fijiensis. The inoculated banana seedlings are placed outdoors in a plastic tunnel lined with wet jute sacks. The temperature is maintained between about 25° and 32° C. and the relative humidity is maintained between about 85% and 100%. After five days, the banana seedlings are transferred to a partially shaded screenhouse, surrounded with wet jute sacks and misted daily. When disease symptom development is optimal, typically 28 to 40 days post inoculation, the banana seedlings are rated for disease control according to the rating scale shown below. Each test contains inoculated treated plants, inoculated untreated plants and a reference standard. When more than one test is run, the data are averaged.

[8] = system: Erysiphe graminis f. sp. tritici; assay: In vivo fungicidal evaluation, Wheat Powdery Mildew (WPM); details: 200 ppm, plants sprayed before inoculation
Plasmopara viticola = assay: In vivo fungicidal evaluation, Grape Downy Mildew (GDM); details: 200 ppm, plants sprayed before inoculation
Rhizoctonia solani [9] = assay: Control of soil borne diseases, Cucumber damping-off by Rhizoctonia (CURS); type: in vivo; details: 14-18 days after treatment; further: ranges in brackets are in %
Method: as §5

Row | Compound | disease control rating, TEB (Alternaria solani) | disease control rating, AS (Venturia inaequalis) | disease control rating, RSB (Rhizoctonia solani [1]) | disease control rating, PB (Botrytis cinerea) | disease control rating, SBC (Cercospora beticola; 200 ppm) | disease control rating, SBC (Cercospora beticola; 400 ppm) | disease control rating, RB (Pyricularia oryzae) | growth inhibition rating, FUSOXC [2] | disease control rating, CUPA (Pythium aphanidermantum; 2.5 kg/ha soil drench) | disease control rating, CUPA (Pythium aphanidermantum; 5.0 kg/ha soil drench) | disease control rating, CUPA (Pythium aphanidermantum; 10.0 kg/ha soil drench) | growth inhibition rating, RHIZSO (Rhizoctonia solani [3]) | disease control rating, CUFO ([4]; 2.5 kg/ha soil drench) | disease control rating, CUFO ([4]; 5.0 kg/ha soil drench) | disease control rating, CUFO ([4]; 10.0 kg/ha soil drench) | disease control rating, WLR [6] | growth inhibition rating, PYTHUL (Pythium ultimum) | growth inhibition rating, PSDCHE [7] | Control of Banana Black Sigatoka (rating) (Mycosphaerella fijiensis) | disease control rating, WPM [8] | also measured
1 | CN([O-])C(=S)C(=O)C(C)(C)C.CN([O-])C(=S)C(=O)C(C)(C)C.[Cu+2] [N,3,3-trimethyl-2-oxo-1-thiobutyrohydroxamic acid copper(+2) chelate] | 9.0 | 8.0 | 4.7 | 6.5 | 7.2 | 6.1 | 0.0 | 4.8 | 1 (5-10) | 2 (15-25) | 1 (5-10) | 8.5 | 3 (30-40) | 5 (60-70) | 6 (75-85) | 6.5 | 8.0 | 8.5 | 6.3 | 5.0 | disease control rating, PCE (Cercospora arachidicola): 7.0; disease control rating, WES [5]: 6.7; disease control rating, GDM (Plasmopara viticola): 7.7; disease control rating, CURS (Rhizoctonia solani [9]; 2.5 kg/ha soil drench): 5 (60-70); disease control rating, CURS (Rhizoctonia solani [9]; 5.0 kg/ha soil drench): 6 (75-85); disease control rating, CURS (Rhizoctonia solani [9]; 10.0 kg/ha soil drench): 9 (100)
2 | CN(O)C(=S)C(=O)C(C)(C)C [N,3,3-trimethyl-2-oxo-1-thiobutyrohydroxamic acid] | 2.7 | 5.0 | 0.3 | 3.0 | 7.0 | 3.5 | 2.7 | 0.0 | 2 (15-25) | 2 (15-25) | 3 (30-40) | 6.0 | 1 (5-10) | 0 (0) | 1 (5-10) | 1.7 | 6.0 | 1.0 | 3.7 | 6.3 | disease control rating, GDM (Plasmopara viticola): 4.3; disease control rating, CURS (Rhizoctonia solani [9]; 2.5 kg/ha soil drench): 2 (15-25); disease control rating, CURS (Rhizoctonia solani [9]; 5.0 kg/ha soil drench): 5 (60-70); disease control rating, CURS (Rhizoctonia solani [9]; 10.0 kg/ha soil drench): 7 (90)
